Patent US8586611B2 (priority 2005, dated 2013)

Legend:
Format in all cases: in vivo
Plasmopara viticola = assay: Test B: grape downy mildew, spray 24 h after inoculation (disease rating, 100 = 100% disease control)
Source text: (§1) The test compounds were first dissolved in acetone in an amount equal to 3% of the final volume and then suspended at the desired concentration (in ppm) in acetone and purified water (50/50 mix by volume) containing 250 ppm of the surfactant Trem® 014 (polyhydric alcohol esters). The resulting test suspensions were then used in tests A-E. Spraying a 200 ppm test suspension to the point of run-off on the test plants was the equivalent of a rate of 500 g/ha.
Grape seedlings were inoculated with a spore suspension of Plasmopara viticola (the causal agent of grape downy mildew) and incubated in a saturated atmosphere at 20° C. for 24 h. After a short drying period, the test suspension was sprayed to the point of run-off on the grape seedlings and then moved to a growth chamber at 20° C. for 5 days, after which the test units were placed back into a saturated atmosphere at 20° C. for 24 h. Upon removal, disease ratings were made.
(§2) Results for Tests A-F are given in Table A. In the table, a rating of 100 indicates 100% disease control and a rating of 0 indicates no disease control (relative to the controls). A dash (-) indicates no test results.

Phytophthora infestans [1] = assay: whole plant or invertebrate; conditions: tomato late blight
Phytophthora infestans [2] = assay: whole plant or invertebrate; conditions: tomato late blight; remark: listed apart in the source
[3] = tested on: Erysiphe graminis f. sp. tritici; assay: Test E: wheat powdery mildew, spray the day before inoculation (disease rating, 100 = 100% disease control)
Source text: as §1
The test suspension was sprayed to the point of run-off on wheat seedlings. The following day the seedlings were inoculated with a spore dust of Erysiphe graminis f. sp. tritici, (the causal agent of wheat powdery mildew) and incubated in a growth chamber at 20° C. for 7 days, after which disease ratings were made.
as §2

[4] = sprayed 24 h after inoculation, unmarked compounds (no asterisk, not 40 or 10 ppm)
[5] = sprayed the day before inoculation, unmarked compounds (no asterisk, not 40 or 10 ppm)
[6] = sprayed 17 h after inoculation, unmarked compounds (no asterisk, not 40 or 10 ppm)
[7] = spray 24 h after inoculation, compounds without asterisk (not 40 or 10 ppm)
[8] = spray the day before inoculation, compounds without asterisk (not 40 or 10 ppm)
[9] = sprayed 24 h after inoculation, tested at 10 ppm (**)
[10] = sprayed the day before inoculation, tested at 10 ppm (**)
[11] = sprayed 17 h after inoculation, tested at 10 ppm (**)

Row | Structure (SMILES) | Test B disease rating (100 = 100% disease control, 0 = no disease control) (Plasmopara viticola; [4]) | Test C disease rating (100 = 100% disease control, 0 = no disease control) (Phytophthora infestans [1]; [5]) | Test D disease rating (100 = 100% disease control, 0 = no disease control) (Phytophthora infestans [2]; [6]) | Test B disease rating (100 = 100% disease control, 0 = no disease control) (Plasmopara viticola; [7]) [%] | Test E disease rating (100 = 100% disease control, 0 = no disease control) [3, 8] [%] | further results
1 | C=CCN(C(=O)c1csc(C2CCN(C(=O)Cn3nc(C(F)(F)F)cc3C)CC2)n1)[C@H](C)c1ccccc1 [compound 304] | 72 | 57 | 26 |  |  | 
2 | CCCN(C(=O)c1csc(C2CCN(C(=O)Cn3nc(C(F)(F)F)cc3C)CC2)n1)[C@H](C)c1ccccc1 [compound 303] | 45 | 95 | 26 |  |  | 
3 | COc1ccc(CCN(C)C(=O)c2csc(C3CCN(C(=O)Cc4cc(C)ccc4C)CC3)n2)cc1OC [compound 171] |  |  |  | 0 | 0 | Test D disease rating (100 = 100% disease control, 0 = no disease control) (Phytophthora infestans [2]; spray 17 h after inoculation, compounds without asterisk (not 40 or 10 ppm)): 24%
4 | Cc1ccc(C)c(CC(=O)N2CCC(c3nc(C(=O)N(C)[C@H](C)c4ccc5ccccc5c4)cs3)CC2)c1 [compound 106] |  |  |  | 0 | 0 | Test C disease rating (100 = 100% disease control, 0 = no disease control) (Phytophthora infestans [1]; [8]): 24%
5 | Cc1cc(Br)nn1CC(=O)N1CCC(c2nc(C(=O)N(C)[C@@H]3CCCc4ccccc43)cs2)CC1 [compound 258] |  |  |  |  |  | Test B disease rating (100 = 100% disease control, 0 = no disease control) (Plasmopara viticola; [9]): 100; Test C disease rating (100 = 100% disease control, 0 = no disease control) (Phytophthora infestans [1]; [10]): 100; Test D disease rating (100 = 100% disease control, 0 = no disease control) (Phytophthora infestans [2]; [11]): 99
6 | Cc1cc(C(F)(F)F)nn1CC(=O)N1CCC(c2nc(C(=O)N[C@@H]3CCCc4ccccc43)cs2)CC1 [compound 305] | 100 | 100 | 99 |  |  | 
7 | CCN(C(=O)c1csc(C2CCN(C(=O)Cn3nc(C(F)(F)F)cc3C)CC2)n1)[C@@H]1CCCc2ccccc21 [compound 306] | 96 | 100 | 83 |  |  | 
8 | Cc1cc(C(F)(F)F)nn1CC(=O)N1CCC(c2nc(C(=O)N[C@H](C)c3ccccc3)cs2)CC1 [compound 301] | 99 | 99 | 80 |  |  | 
9 | COCC(c1ccccc1)N(C)C(=O)c1csc(C2CCN(C(=O)Cc3cc(C)ccc3C)CC2)n1 (stereo not drawn) [compound 109] |  |  |  | 99 | 94 | Test C disease rating (100 = 100% disease control, 0 = no disease control) (Phytophthora infestans [1]; [8]): 99%
10 | Cc1ccc(C)c(CC(=O)N2CCC(c3nc(C(=O)N(C)[C@H](C)c4cccc5ccccc45)cs3)CC2)c1 [compound 105] |  |  |  | 96 | 0 | Test C disease rating (100 = 100% disease control, 0 = no disease control) (Phytophthora infestans [1]; [8]): 100%
11 | C[C@H](NC(=O)c1csc(C2CCN(C(=O)Cc3ccccc3Cl)CC2)n1)c1ccccc1 [compound 260] | 14 | 0 |  |  |  | Test E disease rating (100 = 100% disease control, 0 = no disease control) ([3]; sprayed the day before inoculation, 7 days at 20° C., unmarked compounds (no asterisk, not 40 or 10 ppm)): 0
12 | Cc1cc(Cl)nn1CC(=O)N1CCC(c2nc(C(=O)N(C)[C@@H]3CCCc4ccccc43)cs2)CC1 [compound 257] |  |  |  |  |  | Test B disease rating (100 = 100% disease control, 0 = no disease control) (Plasmopara viticola; [9]): 99; Test C disease rating (100 = 100% disease control, 0 = no disease control) (Phytophthora infestans [1]; [10]): 100; Test D disease rating (100 = 100% disease control, 0 = no disease control) (Phytophthora infestans [2]; [11]): 99
